Source: ChEMBL document CHEMBL5550124, “Structure-activity relationship studies of tetrahydroquinolone derivatives as GPR41 modulators” (Bioorg Med Chem Lett, 2024)
pEC50: −log10 of the molar value. Values belong to the molecule of their own block, whether it stands above or below them. Activity calls are given as the source filed them. The rule behind the calls is not given here.

Assays:
Type in all cases: functional, cell-based
[1] = target: T1, Free fatty acid receptor 3 (Homo sapiens) (UniProt O14843); assay: Antagonist activity at doxycyclin-induced GPR41 (unknown origin) overexpressed in HEK293 cells assessed as increase in forskolin/propionate-induced cAMP level at 1 uM
T1 sequence (whole entry): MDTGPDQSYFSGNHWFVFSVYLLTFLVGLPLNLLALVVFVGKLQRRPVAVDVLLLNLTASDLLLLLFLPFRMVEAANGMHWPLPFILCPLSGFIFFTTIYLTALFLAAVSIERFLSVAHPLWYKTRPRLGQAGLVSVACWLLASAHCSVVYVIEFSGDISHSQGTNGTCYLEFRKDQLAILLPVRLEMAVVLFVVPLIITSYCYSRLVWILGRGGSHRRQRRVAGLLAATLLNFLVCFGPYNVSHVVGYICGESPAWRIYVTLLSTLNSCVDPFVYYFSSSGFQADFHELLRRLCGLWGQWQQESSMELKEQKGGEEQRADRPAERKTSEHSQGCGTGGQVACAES

[2] = target: T1, Free fatty acid receptor 3 (Homo sapiens); assay: Agonist activity at doxycyclin-induced GPR41 (unknown origin) overexpressed in HEK293 cells assessed as decrease in forskolin-induced cAMP level at 1 uM
[3] = target: T1, Free fatty acid receptor 3 (Homo sapiens); assay: Agonist activity at doxycyclin-induced GPR41 (unknown origin) overexpressed in HEK293 cells assessed as decrease in forskolin-induced cAMP level at 30 uM
[4] = target: T1, Free fatty acid receptor 3 (Homo sapiens); assay: Agonist activity at GPR41 (unknown origin) overexpressed in HEK293 cells assessed as decrease in forskolin-induced cAMP level
[5] = target: T2, Free fatty acid receptor 2 (Homo sapiens) (UniProt O15552); assay: Agonist activity at GPR43 (unknown origin) overexpressed in HEK293 cells assessed as decrease in forskolin-induced cAMP level at 1 uM
T2 sequence (whole entry): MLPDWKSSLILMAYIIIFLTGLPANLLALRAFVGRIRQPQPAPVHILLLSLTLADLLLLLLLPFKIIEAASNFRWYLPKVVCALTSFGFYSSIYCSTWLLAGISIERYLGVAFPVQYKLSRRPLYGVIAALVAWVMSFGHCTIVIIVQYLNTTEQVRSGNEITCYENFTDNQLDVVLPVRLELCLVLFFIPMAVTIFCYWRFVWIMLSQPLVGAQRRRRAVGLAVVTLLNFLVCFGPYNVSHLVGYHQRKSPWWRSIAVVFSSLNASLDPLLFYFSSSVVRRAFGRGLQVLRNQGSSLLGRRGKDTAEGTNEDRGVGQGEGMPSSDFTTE

[6] = target: T3, Free fatty acid receptor 3 (Homo sapiens, UniProt O14843); assay: Agonist activity at doxycyclin-induced GPR41 (unknown origin) overexpressed in HEK293 cells assessed as decrease in forskolin-induced cAMP level
T3 sequence (O14843 whole entry): T1 sequence (whole entry)

[7] = target: T1, Free fatty acid receptor 3 (Homo sapiens); assay: Agonist activity at doxycyclin-induced GPR41 (unknown origin) overexpressed in HEK293 cells assessed as decrease in forskolin-induced cAMP level at 10 uM; conditions: filed as agonist

- Activity [1]: inactive
SMILES: CC1=C(C(=O)Nc2ccccc2C)C(c2ccc(-c3ccccc3C(F)(F)F)o2)C2=C(CCCC2=O)N1 (stereo unspecified)

- Activity [1]: inactive
- Activity ([2]; filed as agonist): Active
SMILES: CC1=C(C(=O)Nc2ccccc2C)C(c2ccc(-c3ccc(C(F)(F)F)cc3)o2)C2=C(CCCC2=O)N1 (stereo unspecified)

- Activity [1]: inactive
SMILES: CC1=C(C(=O)Nc2ccccc2C)C(c2ccc(-c3ccccc3Cl)o2)C2=C(CCCC2=O)N1 (stereo unspecified)

- Activity [1]: inactive
SMILES: CC1=C(C(=O)Nc2ccccc2C)C(c2ccc(-c3cccc(F)c3)o2)C2=C(CCCC2=O)N1 (stereo unspecified)

- Activity ([2]; filed as agonist): Active
SMILES: CC1=C(C(=O)Nc2ccccc2C)C(c2ccc(-c3ccc(F)cc3F)o2)C2=C(CCCC2=O)N1 (stereo unspecified)

- Activity ([1]; filed as antagonist): Active
SMILES: CC1=C(C(=O)Nc2ccccc2C)C(c2ccc(-c3ccccc3OC(F)(F)F)o2)C2=C(CCCC2=O)N1 (stereo unspecified)

- Activity [1]: inactive
SMILES: CC1=C(C(=O)Nc2ccccc2C)C(c2ccc(-c3ccc(F)cc3)o2)C2=C(CCCC2=O)N1 (stereo unspecified)

- Activity [1]: inactive
SMILES: CC1=C(C(=O)Nc2ccccc2C)C(c2ccc(-c3cccc(C(F)(F)F)c3)o2)C2=C(CCCC2=O)N1 (stereo unspecified)

- Activity [5]: inactive
- Activity ([2]; filed as agonist): Active
- pEC50 [6]: 5.26
- Activity [4]: inactive
SMILES: CC1=C(C(=O)Nc2ccccc2C)C(c2ccc(-c3ccc(F)c(F)c3F)o2)C2=C(CCCC2=O)N1 (stereo unspecified)

- Activity [7]: Active
- Activity [1]: inactive
SMILES: CC1=C(C(=O)Nc2ccccc2C)C(c2ccc(-c3ccccc3)o2)C2=C(CCCC2=O)N1 (stereo unspecified)

- Activity [1]: inactive
SMILES: CC1=C(C(=O)Nc2ccccc2C)C(c2ccc(-c3ccccc3C#N)o2)C2=C(CCCC2=O)N1 (stereo unspecified)

- Activity [1]: inactive
SMILES: CC1=C(C(=O)Nc2ccccc2C)C(c2ccc(-c3ccco3)o2)C2=C(CCCC2=O)N1 (stereo unspecified)

- Activity [1]: inactive
SMILES: CC1=C(C(=O)Nc2ccccc2C)C(c2ccc(-c3ccccc3F)o2)C2=C(CCCC2=O)N1 (stereo unspecified)

- Activity [2]: inactive
SMILES: CC1=C(C(=O)Nc2ccccc2C)C(c2ccc(-c3c(F)cccc3F)o2)C2=C(CCCC2=O)N1 (stereo unspecified)

Second part, the molecule before the results:

SMILES: CC1=C(C(=O)Nc2ccccc2C)C(c2ccc(-c3cccc(Cl)c3)o2)C2=C(CCCC2=O)N1 (stereo unspecified)
- Activity [1]: inactive

SMILES: COc1cc(OC)cc(-c2ccc(C3C(C(=O)Nc4ccccc4C)=C(C)NC4=C3C(=O)CCC4)o2)c1 (stereo unspecified)
- Activity [1]: inactive

SMILES: CC1=C(C(=O)Nc2ccccc2C)C(c2ccc(-c3ccc(C)cc3)o2)C2=C(CCCC2=O)N1 (stereo unspecified)
- Activity [1]: inactive

SMILES: CC1=C(C(=O)Nc2cc(Cl)ccc2Cl)C(c2ccc(-c3cc(F)cc(F)c3)o2)C2=C(CCCC2=O)N1 (stereo unspecified)
- Activity [3]: inactive
- Activity [4]: inactive

SMILES: CC1=C(C(=O)Nc2cc(Cl)ccc2Cl)C(c2ccc(-c3ccc(F)c(F)c3)o2)C2=C(CCCC2=O)N1 (stereo unspecified)
- Activity [3]: inactive
- Activity [4]: inactive

SMILES: CCC(=O)O
- Activity [1]: inactive
- Activity ([5]; filed as agonist): Active

SMILES: COc1cccc(-c2ccc(C3C(C(=O)Nc4ccccc4C)=C(C)NC4=C3C(=O)CCC4)o2)c1 (stereo unspecified)
- Activity [1]: inactive

SMILES: CC1=C(C(=O)Nc2cc(Cl)ccc2Cl)C(c2ccco2)C2=C(CCCC2=O)N1 (stereo unspecified)
- Activity [1]: inactive
- Activity [5]: inactive
- pEC50 [6]: 6.13

SMILES: CC1=C(C(=O)Nc2ccccc2C)C(c2ccc(-c3cc(Cl)cc(Cl)c3)o2)C2=C(CCCC2=O)N1 (stereo unspecified)
- Activity [2]: inactive

SMILES: CC1=C(C(=O)Nc2ccccc2C)C(c2ccc(-c3cc(F)c(F)c(F)c3)o2)C2=C(CCCC2=O)N1 (stereo unspecified)
- Activity [5]: inactive
- Activity ([2]; filed as agonist): Active
- pEC50 [6]: 5.23
- Activity [4]: inactive

SMILES: CC1=C(C(=O)Nc2ccccc2C)C(c2ccc(-c3cc(F)cc(F)c3)o2)C2=C(CCCC2=O)N1 (stereo unspecified)
- Activity [1]: inactive
- Activity [5]: inactive
- Activity ([2]; filed as agonist): Active
- pEC50 [6]: 6.17
- Activity [4]: inactive

SMILES: CC1=C(C(=O)Nc2ccccc2C)C(c2ccc(-c3ccc(Cl)cc3)o2)C2=C(CCCC2=O)N1 (stereo unspecified)
- Activity [1]: inactive

SMILES: CC1=C(C(=O)Nc2ccccc2C)C(c2ccc(-c3ccc(F)c(F)c3)o2)C2=C(CCCC2=O)N1 (stereo unspecified)
- Activity [5]: inactive
- Activity ([2]; filed as agonist): Active
- pEC50 [6]: 5.47
- Activity [4]: inactive

SMILES: CC1=C(C(=O)Nc2cc(Cl)ccc2Cl)C(c2ccc(-c3cc(F)c(F)c(F)c3)o2)C2=C(CCCC2=O)N1 (stereo unspecified)
- Activity [3]: inactive
- Activity [4]: inactive

SMILES: CC1=C(C(=O)Nc2ccccc2C)C(c2ccc(-c3cc(C(F)(F)F)cc(C(F)(F)F)c3)o2)C2=C(CCCC2=O)N1 (stereo unspecified)
- Activity [1]: inactive

SMILES: CC1=C(C(=O)Nc2ccccc2C)C(c2ccc(-c3cccc(C#N)c3)o2)C2=C(CCCC2=O)N1 (stereo unspecified)
- Activity [1]: inactive

SMILES: CC1=C(C(=O)Nc2cc(Cl)ccc2Cl)C(c2ccc(-c3ccc(F)c(F)c3F)o2)C2=C(CCCC2=O)N1 (stereo unspecified)
- Activity [5]: inactive
- pEC50 [6]: 6.35
- Activity [4]: inactive

SMILES: CC1=C(C(=O)Nc2ccccc2C)C(c2ccc(-c3ccsc3)o2)C2=C(CCCC2=O)N1 (stereo unspecified)
- Activity [1]: inactive

SMILES: CC1=C(C(=O)Nc2ccccc2C)C(c2ccc(-c3cc(C)cc(C)c3)o2)C2=C(CCCC2=O)N1 (stereo unspecified)
- Activity [1]: inactive
